What was measured:
Format in all cases: in vivo, Oryzias latipes
[1] = test system: fertilized eggs (W) of wild medaka fish; test: Formation of thrombus by 17β-estradiol in fertilized eggs (W) of wild medaka fish; details: 25° C., 3 days
Method: Medaka physiological saline solutions (40 mL for each) containing 17 β-estradiol in an amount of 2 ng/L, 20 ng/L, 200 ng/L, 2 μg/L, 1 mg/L, and 4 mg/L were supplied in culture plates, respectively. Three sets were prepared for each concentration. About 30 fertilized eggs (W) of 12-hours after fertilization which were obtained by mutual mating between wild medaka fish, were placed in the first set of culture plates. About 30 fertilized eggs (A) of 12-hours after fertilization which were obtained by crossing the strain A of the transgenic medaka fish with wild medaka fish, were placed in the second set of culture plates. About 30 fertilized eggs (C) of 12-hours after fertilization which were obtained by crossing the strain C of the transgenic medaka fish with wild medaka fish, were placed in the third set of culture plates. After the culture plates were incubated at 25° C. for 3 days, medaka embryos were checked under dissecting microscope with respect to formation of a thrombus. In almost 100% of the fertilized eggs (W), one or more thrombi were formed at the concentration of 4 mg/L of 17β-estradiol, but were not observed at the concentration of less than 4 mg/L. 1%, 3%, 8%, 49%, 55%, and 100% of the fertilized eggs (A) caused the formation of the thrombi at the concentrations of 2 ng/L, 20 ng/L, 200 ng/L, 2 μg/L, 1 mg/L, and 4 mg/L of 17β-estradiol, respectively. […]

[2] = test system: fertilized eggs (A), strain A of the transgenic medaka fish crossed with wild medaka fish; test: Formation of thrombus by 17β-estradiol in fertilized eggs (A) of strain A transgenic medaka fish; details: for fertilized eggs that caused the formation of the thrombi: fertilized eggs (A), 25° C., 3 days
Method: (§1) Medaka physiological saline solutions (40 mL for each) containing 17 β-estradiol in an amount of 2 ng/L, 20 ng/L, 200 ng/L, 2 μg/L, 1 mg/L, and 4 mg/L were supplied in culture plates, respectively. Three sets were prepared for each concentration. About 30 fertilized eggs (W) of 12-hours after fertilization which were obtained by mutual mating between wild medaka fish, were placed in the first set of culture plates. About 30 fertilized eggs (A) of 12-hours after fertilization which were obtained by crossing the strain A of the transgenic medaka fish with wild medaka fish, were placed in the second set of culture plates. About 30 fertilized eggs (C) of 12-hours after fertilization which were obtained by crossing the strain C of the transgenic medaka fish with wild medaka fish, were placed in the third set of culture plates. After the culture plates were incubated at 25° C. for 3 days, medaka embryos were checked under dissecting microscope with respect to formation of a thrombus. In almost 100% of the fertilized eggs (W), one or more thrombi were formed at the concentration of 4 mg/L of 17β-estradiol, but were not observed at the concentration of less than 4 mg/L. 1%, 3%, 8%, 49%, 55%, and 100% of the fertilized eggs (A) caused the formation of the thrombi at the concentrations of 2 ng/L, 20 ng/L, 200 ng/L, 2 μg/L, 1 mg/L, and 4 mg/L of 17β-estradiol, respectively. 19%, 41%, 75%, 73%, 60%, and 100% of the fertilized eggs (C) caused the formation of the thrombi at the same concentrations as mentioned above, respectively.

[3] = test system: fertilized eggs (C), strain C of the transgenic medaka fish crossed with wild medaka fish; test: Formation of thrombus by 17β-estradiol in fertilized eggs (C) of strain C transgenic medaka fish; details: for fertilized eggs that caused the formation of the thrombi: fertilized eggs (C), 25° C., 3 days
Method: as §1

**Q.** Which results are given for `C[C@]12CC[C@@H]3c4ccc(O)cc4CC[C@H]3[C@@H]1CC[C@@H]2O` [17β-estradiol]?
**A.** fertilized eggs in which one or more thrombi were formed ([1]; 4 mg/L): ~100%; formation of thrombi ([1]; concentration of less than 4 mg/L): not observed; estrogen sensitivity relative to that of the wild medaka fish ([2]; fertilized eggs (A) versus wild medaka fish): thousand times; fertilized eggs that caused the formation of the thrombi ([2]; 2 ng/L): 1%; fertilized eggs that caused the formation of the thrombi ([2]; 20 ng/L): 3%; fertilized eggs that caused the formation of the thrombi ([2]; 200 ng/L): 8%; fertilized eggs that caused the formation of the thrombi ([2]; 2 μg/L): 49%; fertilized eggs that caused the formation of the thrombi ([2]; 1 mg/L): 55%; fertilized eggs that caused the formation of the thrombi ([2]; 4 mg/L): 100%; estrogen sensitivity relative to that of the wild medaka fish ([3]; fertilized eggs (C) versus wild medaka fish): hundred thousand times; fertilized eggs that caused the formation of the thrombi ([3]; 2 ng/L): 19%; fertilized eggs that caused the formation of the thrombi ([3]; 20 ng/L): 41%; fertilized eggs that caused the formation of the thrombi ([3]; 200 ng/L): 75%; fertilized eggs that caused the formation of the thrombi ([3]; 2 μg/L): 73%; fertilized eggs that caused the formation of the thrombi ([3]; 1 mg/L): 60%; fertilized eggs that caused the formation of the thrombi ([3]; 4 mg/L): 100%

Reference: US6759568B2, “High estrogen-sensitive medaka fish” (President of Hiroshima University, priority 2000, dated 2004)
